In publication PMC6132687, “Stem cells are the most sensitive screening tool to identify toxicity of GATA4-targeted novel small-molecule compounds” (Archives of Toxicology, 2018):

Legend:
mESCs = assay: MTT assay in mESCs; type: cell-based, mouse; settings: 24 h; for reduction in cell viability: 30 µM
Experimental: (§1) The cells were exposed to the test compounds for 24 h and cytotoxicity was quantified with MTT and LDH assays as described previously (Talman et al. [2011]). For the determination of cell membrane integrity, 50 µl of medium from each well was transferred onto a new 96-well plate followed by addition of 50 µl of substrate solution containing 1.3 mM β-nicotinamide adenine dinucleotide, 660 µM iodonitrotetrazolium, 54 mM L(+)-lactic acid, 280 µM phenazine methosulphate and 0.2 M Tris–HCl (pH 8.0). After a 30-min incubation, the reaction was stopped by adding 50 µl of 1 M acetic acid to each well and absorbance was measured at 490 nm using Victor2 plate reader (PerkinElmer, Turku, Finland). Spontaneous LDH release was measured from untreated cells, maximal LDH release from cells lysed with 0.9% Triton X-100 and background absorbance was measured from wells without cells. After background extraction, cytotoxicity was calculated as follows: cytotoxicity (%) = [(sample − spontaneous LDH release)/(maximal LDH release − spontaneous LDH release)] × 100. For quantification of metabolic activity, 3-(4,5-dimethylthiazol-2-yl)-2,5-diphenyltetrazolium bromide (MTT) was added to the cells at a final concentration of 0.5 mg/ml followed by 2 h incubation in cell culture conditions. The medium was then aspirated and formazan crystals were solubilized in DMSO. Absorbance was measured at 550 nm and absorbance at 650 nm was subtracted as background.
(§2) Mouse embryonic stem cells (mESCs), embryoid bodies (EBs), and primary mouse embryonic fibroblasts (MEFs) were used for toxicity experiments. E14 mESCs were cultured in feeder-free conditions on plates coated with 0.1% gelatin in DMEM with 15% FBS, GlutaMax, MEM non-essential amino acids, 2-mercaptoethanol, and leukemia inhibitory factor (LIF). For toxicity assays, the cells were dissociated with TrypLe and plated at 5,000 cells/well in gelatin-coated 96-well plates 24 hours prior to compound exposures. […]
(§3) 1640 without glucose with B-27 supplement in order to purify cardiomyocytes. From day 15 onwards the cells were maintained in RPMI 1640 supplemented with B-27 (RB+ins). Beating hiPSC-CMs were dissociated between days 15 and 22 by incubating them in cell dissociation solution containing 40% enzyme-free cell dissociation buffer, 40% RPMI 1640 and 20% trypsin-EDTA (final trypsin concentration 0.01%) for 7–8 min, whereafter the cells were collected and trypsin was inactivated in RB+ins supplemented with 10% FBS. After centrifugation the cells were suspended in RB+ins with 10% FBS containing 10 µM ROCK inhibitor and seeded at 15,000 cells/well (cytotoxicity assays) or 20,000 cells/well (high content analysis) in gelatin-coated 96-well plates. The cells were let to attach for 2 days at 37 °C in standard conditions, whereafter the compounds were added in RB+ins. In general, the differentiation yielded an almost pure (>95%) cardiomyocyte culture.
(§4) Syntheses and characterization of compounds
Materials and general procedures. All reagents were acquired from Sigma-Aldrich (Schnelldorf, Germany) and Enamine (Kiev, Ukraine), and were used without further purification. All reactions in anhydrous solvents were conducted in oven-dried glassware under anhydrous argon. Thin-layer chromatography (TLC) was performed using Silica Gel 60 F254 (Merck) and Silica Gel 60 NH2 F254s aluminium sheets (Merck), visualized by UV illumination and stained with ninhydrin in EtOH (1.5% w/v). […] The 1H and 13C NMR spectra were recorded on a Varian

[1] = tested on: mESC derivatives from day 5 embryoid bodies (D5EBs); assay: MTT assay in D5EBs; type: cell-based, mouse; settings: 24 h
Experimental: as §1
as §2, with “exposures. To induce differentiation of mESCs, cells were plated on day 0 in 20 µl hanging drops at 25,000 cells/ml in inverted V-bottom plates in DMEM with 20% FBS and with all above supplements except LIF. On day 2 medium was added to EBs, and the EBs were dissociated with TrypLe and plated at 5,000 cells/well in gelatin-coated 96-well plates on day 5 and exposed to test compounds 24 later. Primary MEFs were cultured on 0.1% gelatin-coated plates in DMEM with 10%” for “exposures.”
as §3, §4
Materials and general procedures. […]

[2] = tested on: stem cell and progenitor cell viability; assay: Toxicity classification from MTT screening across cell types; settings: based on effects on stem cell and progenitor cell viability
Experimental: as §1
When comparing the effects of different compounds within each individual cell type, the compounds can be grouped into two main classes: toxic (3i-1000, 3i-1120, 3i-1148 and 3i-1229) and non-toxic (3i-1047, 3i-1051, 3i-1165, and 3i-1228) compounds. Based on the hiPSC toxicity data, 3i-1148 can be considered as the most toxic compound with an IC50 of 0.30 µM (Fig. 5b).

Row | Structure (SMILES) | reduction in cell viability (mESCs) | reduction in viability ([1]; 30 µM) | toxicity class (toxic / non-toxic) [2] | reduction in metabolic activity ([1]; at ≥ 10 µM) | sensitivity of cell type to compound (viability) (mESCs) | sensitivity of cell type to compound (viability) [1]
1 | CCN(CC)c1ccc(NC(=O)c2c(C)noc2-c2cc(C)on2)cc1 [3i-1047] | 38–45% | 38–45% | non-toxic |  |  | 
2 | CCN(CC)c1ccc(NC(=O)c2c(-c3ccccc3)noc2C)cc1 [3i-1000] | 56% |  | toxic | moderate, but not statistically significant |  | 
3 | COc1ccc(-c2cc(N)nn2C(=O)c2c(-c3ccccc3)noc2C)cc1 [3i-1229] |  |  | toxic |  | sensitive | sensitive
4 | CCN(CC)c1ccc(NC(=O)c2cc(C)oc2-c2ccccc2)cc1 [3i-1148] |  |  | toxic |  | sensitive | sensitive
5 | CCC(=O)N(Cc1ccc(N(CC)CC)cc1)c1c(-c2ccccc2)noc1C [3i-1120] |  |  | toxic |  | sensitive | sensitive
